Data set [1] deals with sedge, umbrella (small-flower umbrella sedge, Cyperus difformis). Kind of data set: Test B flooded paddy test. It counts as in vivo. Particulars: Cyperus difformis, 250 g ai/ha, Flood, read-out: Sedge, Umbrella plant response rating. Put shortly:
(§1)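 2-leaf plants; pots flooded 3 cm over soil; cpd added to paddy water; depth held; greenhouse 13–15 d; visual rating vs controls, 0 = no effect, 100 = complete control.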

For data set [2], the system named is ducksalad (Heteranthera limosa). Description: Test B flooded paddy test. It counts as in vivo. Particulars: Heteranthera limosa, 250 g ai/ha, Flood, read-out: Ducksalad plant response rating. Put shortly: as §1
The next data set has as its system rice (Oryra sativa). Kind of data set: Test B flooded paddy test. In kind it is in vivo. Particulars: Oryza sativa, 250 g ai/ha, Flood, read-out: Rice plant response rating. Put shortly:
as §1

Data set [3] has as its system barnyardgrass (Echinochloa crus-galli). Description: Test B flooded paddy test. It counts as in vivo. Particulars: Echinochloa crus-galli, 250 g ai/ha, Flood, read-out: Barnyardgrass plant response rating. Put shortly: as §1
Data set [4] deals with blackgrass (Alopecurus myosuroides). Description: Test A postemergence. It counts as in vivo. Particulars: Alopecurus myosuroides, post-emergence, 240 h; for pest or weed control at 125 g/ha: 125 g ai/ha; for pest or weed control at 500 g/ha: 500 g ai/ha, 0 to 100 scale, 0 is no effect, 100 is complete control. The method, boiled down:
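Seeded soil received test chemicals as a preemergence directed spray, and seedlings at one to two leaves, 2–10 cm tall, received them postemergence, in a non-phytotoxic, surfactant-containing solvent mixture. Pots were held in a greenhouse for approximately 10 d, then rated for injury from 0, no effect, to 100, complete control.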

[5] abbreviates: 0 to 100 scale where 0 is no effect and 100 is complete control.
Where [6] appears, read: postemergence, visual injury on 0 to 100 scale (0 no effect, 100 complete control), approx. 10 d, read-out: Blackgrass plant response rating.
[7] abbreviates: postemergence, read-out: Blackgrass plant response rating.
Where [8] appears, read: postemergence, visual injury vs untreated controls after approx. 10 d, 0 = no effect, 100 = complete control, read-out: Blackgrass plant response rating (0 to 100 scale).
Setting [9] is: scale of 0 to 100 where 0 is no effect and 100 is complete control.
Setting [10] is: Postemergence, visual injury after approximately 10 d, 0 to 100 scale where 0 is no effect and 100 is complete control, read-out: Plant response rating, Blackgrass.

Read-outs that look alike come from different tables or passages of the source.

The values that follow come from patent publication US12077503B2, “Substituted cyclic amides and their use as herbicides” (FMC CORPORATION, priority 2015, dated 2024).

In general, melting point refers to the temperature of the solid-liquid transition.

With `CN1CC(c2cccc(/C=C/Cl)c2)C(C(=O)Nc2ccccc2F)C1=O` (stereo not drawn) [Compound 1129], the melting point lay within 97 to 101 °C. Further, the pest or weed control at 250 g/ha in data set [1] (setting [5]) worked out at 0%. Besides, the pest or weed control at 250 g/ha in data set [2] (setting [5]) was 70%. In addition, the pest or weed control at 250 g/ha in the data set on rice (Oryra sativa) (setting [5]) is 0%. The pest or weed control at 250 g/ha in data set [3] (setting [5]) is 20%. Also, the pest or weed control at 125 g/ha in data set [4] (setting [6]) amounted to 0%. Moreover, the pest or weed control at 500 g/ha in data set [4] (setting [7]) was 0%.
The compound `O=C1NCC[C@H](c2cccc(Cl)c2)[C@H]1C(=O)Nc1ccccc1F` [Compound 1159] had a melting point of 141 to 143 °C. For the same compound, in data set [1] (setting [5]), the pest or weed control at 250 g/ha was determined as 0%. Besides, the pest or weed control at 250 g/ha in data set [2] (setting [5]) is 70%. Further, the pest or weed control at 250 g/ha in the data set on rice (Oryra sativa) (setting [5]) was 0%. Further, in data set [3] (setting [5]), the pest or weed control at 250 g/ha came to 0%. Moreover, the pest or weed control at 125 g/ha in data set [4] (setting [8]) stood at 0%. The pest or weed control at 500 g/ha in data set [4] (setting [7]) was found to be 0%.
For `CN1C[C@H](c2ccc(C(F)(F)F)cc2)[C@@H](C(=O)Nc2ccc(F)cc2Br)C1=O` [Compound 934], the melting point lay in the range of 123 to 126 °C. Further, in data set [1] (setting [9]), the pest or weed control at 250 g/ha came to 0%. Also, the pest or weed control at 250 g/ha in data set [2] (setting [9]) turned out to be 60%. Further, the pest or weed control at 250 g/ha in the data set with rice (Oryra sativa) (setting [9]) was determined as 0%. Besides, the pest or weed control at 250 g/ha in data set [3] (setting [9]) worked out at 0%. Also, the pest or weed control at 125 g/ha in data set [4] (setting [10]) stood at 0%.
`O=C1NC[C@H](c2ccc(F)c(OC(F)(F)C(F)F)c2)[C@H]1C(=O)Nc1ccc(F)cc1F` (racemic) [Compound 1154] registered a melting point of 102 to 106 °C. The pest or weed control at 250 g/ha in data set [1] (setting [5]) is 0%. Moreover, the pest or weed control at 250 g/ha in data set [2] (setting [5]) was determined as 100%. For the same compound, the pest or weed control at 250 g/ha in the data set with rice (Oryra sativa) (setting [5]) turned out to be 30%. For the same compound, in data set [3] (setting [5]), the pest or weed control at 250 g/ha stood at 30%. For the same compound, the pest or weed control at 125 g/ha in data set [4] (setting [6]) stood at 70%. For the same compound, the pest or weed control at 500 g/ha in data set [4] (setting [7]) was found to be 90%.
For `CN1C[C@H](c2ccc(C(F)(F)F)cc2)[C@@H](C(=O)Nc2ccccc2[S+](C)[O-])C1=O` (stereo partly drawn) [Compound 915], the melting point fell in the range of 181 to 184 °C. The pest or weed control at 250 g/ha in data set [1] (setting [9]) was found to be 0%. Moreover, in data set [2] (setting [9]), the pest or weed control at 250 g/ha was 100%. In addition, in the data set with rice (Oryra sativa) (setting [9]), the pest or weed control at 250 g/ha stood at 20%. Besides, the pest or weed control at 250 g/ha in data set [3] (setting [9]) stood at 40%. In addition, the pest or weed control at 125 g/ha in data set [4] (setting [10]) stood at 40%.
As for `CN1CC(c2cccc(O)c2)C(C(=O)Nc2cccc(F)c2F)C1=O` (stereo not drawn) [Compound 1130], the melting point was in the range of 216 to 220 °C. In data set [1] (setting [5]), the pest or weed control at 250 g/ha is 0%. The pest or weed control at 250 g/ha in data set [2] (setting [5]) came out at 0%. In the data set on rice (Oryra sativa) (setting [5]), the pest or weed control at 250 g/ha was found to be 0%. Further, the pest or weed control at 250 g/ha in data set [3] (setting [5]) was 0%. For the same compound, the pest or weed control at 125 g/ha in data set [4] (setting [6]) is 0%. The pest or weed control at 500 g/ha in data set [4] (setting [7]) was 0%.
The compound `Cc1cccc(NC(=O)[C@H]2C(=O)N(C)C[C@@H]2c2ccc(C(F)(F)F)cc2)c1F` [Compound 939] had a melting point of 178 to 181 °C. Further, the pest or weed control at 250 g/ha in data set [1] (setting [9]) was determined as 0%. Also, the pest or weed control at 250 g/ha in data set [2] (setting [9]) turned out to be 40%. Moreover, in the data set on rice (Oryra sativa) (setting [9]), the pest or weed control at 250 g/ha worked out at 0%. The pest or weed control at 250 g/ha in data set [3] (setting [9]) stood at 0%. Besides, in data set [4] (setting [10]), the pest or weed control at 125 g/ha was determined as 0%.
`Cc1cc(F)ccc1NC(=O)[C@H]1C(=O)N(C)C[C@@H]1c1ccc(C(F)(F)F)cc1` [Compound 936] yielded a melting point of 119 to 122 °C. Besides, the pest or weed control at 250 g/ha in data set [1] (setting [9]) came to 0%. Further, the pest or weed control at 250 g/ha in data set [2] (setting [9]) was found to be 85%. Moreover, the pest or weed control at 250 g/ha with rice (Oryra sativa) (setting [9]) came to 0%. For the same compound, the pest or weed control at 250 g/ha in data set [3] (setting [9]) amounted to 0%. Further, in data set [4] (setting [10]), the pest or weed control at 125 g/ha was 30%.
`CN1C[C@H](c2ccc(C(F)(F)F)cc2)[C@@H](C(=O)Nc2ccc(F)cc2C(F)(F)F)C1=O` [Compound 942] had a melting point of 113 to 116 °C. Also, the pest or weed control at 250 g/ha in data set [1] (setting [9]) came to 0%. For the same compound, the pest or weed control at 250 g/ha in data set [2] (setting [9]) was 40%. Moreover, the pest or weed control at 250 g/ha in the data set on rice (Oryra sativa) (setting [9]) came to 0%. For the same compound, in data set [3] (setting [9]), the pest or weed control at 250 g/ha came out at 0%. Moreover, the pest or weed control at 125 g/ha in data set [4] (setting [10]) was 70%.
For `O=C1NC[C@H](c2nccs2)[C@H]1C(=O)Nc1cccc(F)c1F` [Compound 1182], the melting point lay in the range of 139.5 to 153 °C. Further, in data set [1] (setting [5]), the pest or weed control at 250 g/ha worked out at 0%. Besides, in data set [2] (setting [5]), the pest or weed control at 250 g/ha came out at 0%. Also, in the data set on rice (Oryra sativa) (setting [5]), the pest or weed control at 250 g/ha was found to be 0%. The pest or weed control at 250 g/ha in data set [3] (setting [5]) came to 0%. Also, the pest or weed control at 125 g/ha in data set [4] (setting [8]) was found to be 0%. The pest or weed control at 500 g/ha in data set [4] (setting [7]) was determined as 0%.
`Cc1cccc(NC(=O)[C@H]2C(=O)N(C)C[C@@H]2c2ccc(C(F)(F)F)cc2)c1C` [Compound 941] displayed a melting point of 166 to 169 °C. Further, the pest or weed control at 250 g/ha in data set [1] (setting [9]) was 0%. Further, the pest or weed control at 250 g/ha in data set [2] (setting [9]) turned out to be 35%. In addition, the pest or weed control at 250 g/ha in the data set on rice (Oryra sativa) (setting [9]) is 0%. Further, the pest or weed control at 250 g/ha in data set [3] (setting [9]) is 0%. For the same compound, in data set [4] (setting [10]), the pest or weed control at 125 g/ha came out at 0%.
`CN1CC(c2cccc(I)c2)C(C(=O)Nc2ccccc2F)C1=O` (stereo not drawn) [Compound 846]: the melting point is 132 to 135 °C. In addition, in data set [1] (setting [9]), the pest or weed control at 250 g/ha was 0%. Besides, the pest or weed control at 250 g/ha in data set [2] (setting [9]) worked out at 60%. Moreover, the pest or weed control at 250 g/ha in the data set with rice (Oryra sativa) (setting [9]) came to 0%. In addition, the pest or weed control at 250 g/ha in data set [3] (setting [9]) stood at 60%. Also, the pest or weed control at 125 g/ha in data set [4] (postemergence, visual injury rating after approximately 10 d, read-out: Blackgrass plant response rating (0 to 100 scale, 0 no effect, 100 complete control)) turned out to be 50%.
The compound `CCc1cccc([C@H]2CCNC(=O)[C@@H]2C(=O)Nc2cccc(F)c2F)c1` [Compound 1058] gave a melting point of 128 to 132 °C. In data set [1] (setting [5]), the pest or weed control at 250 g/ha amounted to 0%. The pest or weed control at 250 g/ha in data set [2] (setting [5]) was found to be 0%. In addition, the pest or weed control at 250 g/ha with rice (Oryra sativa) (setting [5]) came out at 25%. For the same compound, the pest or weed control at 250 g/ha in data set [3] (setting [5]) was 35%. Moreover, in data set [4] (setting [6]), the pest or weed control at 125 g/ha was found to be 30%. Further, in data set [4] (setting [7]), the pest or weed control at 500 g/ha is 40%.
